From the supplement of paper PMC10307832

Legend:
Assay in all cases: relative viability (nuclei count vs DMSO), 5 days (fraction); higher = more cells survive
Vemurafenib + Luminespib = compound: CCCS(=O)(=O)Nc1ccc(F)c(C(=O)c2c[nH]c3ncc(-c4ccc(Cl)cc4)cc23)c1F [Vemurafenib] + CCNC(=O)c1noc(-c2cc(C(C)C)c(O)cc2O)c1-c1ccc(CN2CCOCC2)cc1 [Luminespib] (partner 0.01 µM)
Method in brief: (§1)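 Medians of duplicate plates are given as relative viability. That measure is the nuclei count in treated wells divided by the count in vehicle wells. Counts were taken on 4× images of lung cancer cell lines in 1536-well plates, 5 days after pin-tool dosing the day after seeding with one drug alone or a fixed anchor-drug dose plus five library-drug doses (not always all listed) in √10 steps.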

Vemurafenib + AZD7762 = compound: CCCS(=O)(=O)Nc1ccc(F)c(C(=O)c2c[nH]c3ncc(-c4ccc(Cl)cc4)cc23)c1F [Vemurafenib] + NC(=O)Nc1cc(-c2cccc(F)c2)sc1C(=O)N[C@H]1CCCNC1 [AZD7762] (partner 0.2 µM)
Method in brief: as §1

OSI-027 + Navitoclax = compound: COc1cccc2cc(-c3nc([C@H]4CC[C@H](C(=O)O)CC4)n4ncnc(N)c34)[nH]c12 [OSI-027] + CC1(C)CCC(c2ccc(Cl)cc2)=C(CN2CCN(c3ccc(C(=O)NS(=O)(=O)c4ccc(N[C@H](CCN5CCOCC5)CSc5ccccc5)c(S(=O)(=O)C(F)(F)F)c4)cc3)CC2)C1 [Navitoclax] (partner 0.5 µM)
Method in brief: as §1

OSI-027 + Foretinib = compound: COc1cccc2cc(-c3nc([C@H]4CC[C@H](C(=O)O)CC4)n4ncnc(N)c34)[nH]c12 [OSI-027] + COc1cc2c(Oc3ccc(NC(=O)C4(C(=O)Nc5ccc(F)cc5)CC4)cc3F)ccnc2cc1OCCCN1CCOCC1 [Foretinib] (partner 0.25 µM)
Method in brief: as §1

| Cell Line | relative viability (Vemurafenib + Luminespib; first compound 0.03162 µM) | relative viability (Vemurafenib + Luminespib; first compound 0.1 µM) | relative viability (Vemurafenib + Luminespib; first compound 0.3162 µM) | relative viability (Vemurafenib + Luminespib; first compound 1 µM) | relative viability (Vemurafenib + AZD7762; first compound 0.03162 µM) | relative viability (Vemurafenib + AZD7762; first compound 0.1 µM) | relative viability (Vemurafenib + AZD7762; first compound 0.3162 µM) | relative viability (Vemurafenib + AZD7762; first compound 1 µM) | relative viability (OSI-027 + Navitoclax; first compound 0.01 µM) | relative viability (OSI-027 + Navitoclax; first compound 0.03162 µM) | relative viability (OSI-027 + Navitoclax; first compound 0.1 µM) | relative viability (OSI-027 + Navitoclax; first compound 0.3162 µM) | relative viability (OSI-027 + Navitoclax; first compound 1 µM) | relative viability (OSI-027 + Foretinib; first compound 0.01 µM) | relative viability (OSI-027 + Foretinib; first compound 0.03162 µM) | relative viability (OSI-027 + Foretinib; first compound 0.1 µM) | relative viability (OSI-027 + Foretinib; first compound 0.3162 µM) | relative viability (OSI-027 + Foretinib; first compound 1 µM) |
| --- | --- | --- | --- | --- | --- | --- | --- | --- | --- | --- | --- | --- | --- | --- | --- | --- | --- | --- |
| HOP-62 | 0.902 | 0.843 | 0.931 | 0.971 | 0.551 | 0.558 | 0.395 | 0.668 | 1.11 | 1.09 | 1.02 | 1.13 | 0.646 | 1.19 | 1.09 | 1.02 | 1.14 | 0.541 |
| IA-LM | – | – | – | – | – | – | – | – | 0.873 | 0.572 | 0.481 | 0.182 | 0.0688 | 1.21 | 0.992 | 0.729 | 0.807 | 0.136 |
| LC-2-ad | 0.887 | 0.978 | – | 1.05 | 0.831 | 0.615 | 0.749 | 0.818 | 0.458 | 0.4 | 0.372 | 0.243 | 0.122 | 0.826 | 0.899 | 0.888 | 0.765 | 0.582 |
| LCLC-97TM1 | 0.811 | 0.768 | 0.807 | 0.817 | 0.286 | 0.298 | 0.326 | 0.342 | 0.36 | 0.331 | 0.381 | 0.214 | 0.159 | 0.969 | 0.927 | 0.994 | 0.584 | 0.432 |
| LCLC-103H | 0.914 | 0.805 | 0.899 | 0.967 | 0.757 | 0.741 | 0.617 | 0.694 | – | – | – | – | – | 0.693 | 0.658 | 0.786 | 0.666 | 0.334 |
| NCI-H358 | 0.27 | – | 0.504 | 0.267 | 0.551 | – | 0.621 | 0.632 | – | – | – | – | – | 0.68 | 0.562 | 0.699 | 0.703 | 0.576 |
| NCI-H520 | 0.187 | 0.231 | 0.221 | 0.233 | – | – | – | – | 1.31 | 1.05 | 0.793 | 0.637 | 0.303 | 0.894 | 0.796 | 0.59 | 0.333 | 0.31 |
| NCI-H522 | 0.96 | 1.14 | – | 1.13 | 0.797 | 0.855 | 0.755 | 0.869 | – | – | – | – | – | – | – | – | – | – |
| NCI-H650 | 0.72 | 0.852 | – | 0.637 | 0.854 | 1.03 | 0.419 | 0.906 | – | – | – | – | – | 1.08 | 1.09 | 1.01 | 0.868 | 0.514 |
| NCI-H661 | 0.979 | 0.806 | 0.897 | 0.953 | – | – | – | – | – | – | – | – | – | 0.984 | 0.893 | 1.03 | 0.975 | 0.599 |
| NCI-H1299 | – | – | – | – | – | – | – | – | 1.07 | 1.05 | 1.08 | 1.1 | 1 | 1.14 | 1.13 | 1.09 | 1.14 | 1.03 |
| NCI-H1563 | 0.505 | 0.475 | 0.563 | 0.59 | – | – | – | – | – | – | – | – | – | 0.937 | 0.857 | 0.909 | 0.839 | 0.854 |
| NCI-H1623 | 0.631 | – | 0.679 | 0.414 | – | – | – | – | – | – | – | – | – | 0.876 | 0.767 | 0.671 | 0.595 | 0.391 |
| NCI-H1648 | – | – | – | – | – | 0.571 | 1.23 | 0.779 | – | – | – | – | – | – | – | – | – | – |
| NCI-H1650 | – | 0.205 | – | 0.215 | – | – | – | – | 1.21 | 1.47 | 1.11 | 1.29 | 0.459 | 1.42 | 1.21 | 1.19 | 1.25 | 0.797 |
| NCI-H1703 | – | – | – | – | 0.12 | – | – | 0.101 | 0.864 | 1.11 | 0.991 | 0.625 | 0.512 | 0.324 | 0.336 | 0.291 | 0.429 | 0.324 |
| NCI-H1792 | 0.373 | 0.345 | 0.575 | 0.434 | 0.548 | 0.44 | – | 0.593 | 0.417 | 0.458 | 0.556 | 0.572 | 0.43 | – | – | – | – | – |
| NCI-H2009 | 0.93 | 0.912 | 0.861 | 0.921 | – | – | – | – | 1.16 | 1.15 | 1.07 | 1.07 | 0.619 | 1.25 | 1.14 | 1.18 | 1.11 | 0.801 |
| NCI-H2023 | 0.731 | 0.628 | 0.827 | 0.766 | – | – | – | – | 0.982 | 0.99 | 0.964 | 0.708 | 0.255 | 0.964 | 0.925 | 0.785 | 0.765 | 0.461 |
| NCI-H2228 | 0.148 | 0.161 | 0.19 | 0.172 | – | – | – | – | 0.978 | 1.34 | 0.81 | – | 0.303 | 0.887 | 0.791 | 0.831 | 0.745 | 0.439 |
| NCI-H2342 | 0.609 | 0.622 | 0.792 | 0.701 | 0.462 | 0.499 | 0.47 | 0.518 | – | – | – | – | – | 1.14 | 0.95 | 1.05 | 0.83 | 0.648 |
| SK-LU-1 | 0.208 | 0.219 | 0.171 | 0.218 | – | – | – | – | 0.743 | 0.869 | 0.679 | 0.453 | 0.259 | 0.911 | 0.816 | 0.586 | 0.433 | 0.28 |
| SK-MES-1 | 0.866 | 0.553 | 0.646 | 0.745 | – | – | – | – | 1.27 | 1.23 | 1.17 | 0.974 | 0.484 | 0.874 | 1.1 | 0.926 | 0.69 | 0.447 |
| SW 900 | 0.168 | 0.174 | 0.207 | 0.208 | 0.575 | 0.469 | 0.618 | 0.563 | – | – | – | – | – | – | 0.644 | 0.725 | 0.873 | 0.405 |
| SW 1573 | 0.16 | 0.583 | 0.377 | 0.194 | – | – | – | – | 0.889 | 1.05 | 0.902 | 0.757 | 0.504 | 0.753 | 0.923 | 0.713 | 0.59 | 0.787 |
